Measured values reported in article PMC6696021, “Combined Ensemble Docking and Machine Learning in Identification of Therapeutic Agents with Potential Inhibitory Effect on Human CES1” (Molecules, 2019).
pIC50, pKi: −log10 of the molar value. Where two headings read alike, the source gives them in different places.

Tests used:
[1] = Solubility in aqueous assay buffer; assay type: physicochemical; conditions: pH 7
[2] = biological target: T1, Recombinant human CES1 (Homo sapiens, UniProt P23141); assay: In vitro assessment of CES1 inhibition (p-nitrophenyl acetate hydrolysis); assay type: biochemical; conditions: for inhibition at 600 µM: read-out: inhibition at max concentration
T1 construct: purchased BD Gentest (Woburn, MA, US)
T1 sequence (P23141 18-567): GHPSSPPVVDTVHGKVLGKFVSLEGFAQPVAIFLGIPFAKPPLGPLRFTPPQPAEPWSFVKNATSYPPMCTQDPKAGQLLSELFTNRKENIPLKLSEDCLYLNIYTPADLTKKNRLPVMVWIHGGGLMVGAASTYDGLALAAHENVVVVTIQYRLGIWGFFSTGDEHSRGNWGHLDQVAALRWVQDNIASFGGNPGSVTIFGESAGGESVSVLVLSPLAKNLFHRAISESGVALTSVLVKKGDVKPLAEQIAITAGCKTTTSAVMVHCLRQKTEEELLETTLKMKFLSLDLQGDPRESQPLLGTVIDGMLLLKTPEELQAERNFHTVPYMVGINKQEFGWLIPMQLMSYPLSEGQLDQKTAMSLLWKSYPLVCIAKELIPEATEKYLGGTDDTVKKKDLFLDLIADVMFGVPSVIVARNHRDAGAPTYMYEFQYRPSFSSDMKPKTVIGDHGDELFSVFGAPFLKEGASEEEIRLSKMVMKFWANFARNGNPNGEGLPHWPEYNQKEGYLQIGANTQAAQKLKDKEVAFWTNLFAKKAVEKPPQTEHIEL

[3] = biological target: CES1; parameters: method as in earlier work; conditions: Table S1, bioactivity from ChEMBL database; read-out: Ki_Nanomolar; cited from earlier work
[4] = substrate p-nitrophenyl acetate 100 µM, 37 °C, 3 min, NS means Non-significant, read-out: IC50
[5] = substrate p-nitrophenyl acetate 100 µM, 37 °C, 3 min, NS means Non-significant

Question: For Oc1ccc2c3c1O[C@H]1[C@@H](O)CC[C@@]4(O)[C@@H](C2)N(CC2CCC2)CC[C@]314 [Nalbuphine], which “solubility in aqueous buffer” value [1] is on record?
Answer: Its value is “lacked the required solubility”.

Question: With COc1ccc([C@@H]2Sc3ccccc3N(CCN(C)C)C(=O)[C@@H]2OC(C)=O)cc1 [Diltiazem] as the compound, how does the pIC50 [2, 4] read?
Answer: The pIC50 was 4.86.

Question: For C[N+]1(C)CCCC(OC(=O)C(O)(c2ccccc2)c2ccccc2)C1 (centres unmarked) [Mepenzolate], which inhibition at 600 µM ([2]; max concentration 600 µM) is on record?
Answer: Its inhibition at 600 µM is roughly 15%.

Question: And the pIC50 [2, 5]?
Answer: The pIC50 was less than 3.22.

Question: With CN1[C@@H]2CC[C@H]1C[C@@H](OC(c1ccccc1)c1ccccc1)C2 [Benztropine] as the compound, how does the pIC50 [2, 4] read?
Answer: Its pIC50 is 3.53.

Question: What does the source list for C[C@H]1CN(C[C@H](Cc2ccccc2)C(=O)NCC(=O)O)CC[C@@]1(C)c1cccc(O)c1 [Alvimopan]?
Answer: inhibition at the highest concentration ([2]; highest concentration tested): no inhibition; pIC50 [2, 4]: < 3.22

Question: With C=CCN1CC[C@]23c4c5ccc(O)c4O[C@H]2C(=O)CC[C@@]3(O)[C@H]1C5 [Naloxone] as the compound, how does the pIC50 [2] read?
Answer: Its pIC50 is 3.21.

Question: Which inhibition at 600 µM [2] does the source give for O=C(O[C@H]1C[C@H]2CC[C@@H](C1)[N+]21CCCC1)C(O)(c1ccccc1)c1ccccc1 [Trospium] here?
Answer: Its inhibition at 600 µM is 30%.

Question: What about the pIC50 [2, 5] of the same compound?
Answer: Its pIC50 is less than 3.22.

Question: With CC#CCC(C)[C@H](O)/C=C/[C@@H]1[C@H]2C/C(=C/CCCC(=O)O)C[C@H]2C[C@H]1O (some centres unmarked) [Iloprost] as the compound, how does the pIC50 [2, 4] read?
Answer: Its pIC50 is 3.44.

Question: With CCCCC[C@H](O)CC[C@@H]1[C@H]2Cc3cccc(OCC(=O)O)c3C[C@H]2C[C@H]1O [Treprostinil] as the compound, how does the pIC50 [2, 4] read?
Answer: The pIC50 was 3.41.

Question: With Cc1cccc2c3c(ccc12)C1=C(C(=O)C3=O)[C@@H](C)CO1 [DIHYDROTANSHINONEI] as the compound, how does the pKi [3] read?
Answer: The pKi was 6.40.

Question: With CCCCCC[S+]([O-])CC(O)(O)C(F)(F)F (centres unmarked) [CHEMBL460808] as the compound, how does the pKi [3] read?
Answer: Its pKi is 4.40.

Question: With O=C(C(=O)c1ccc(Br)s1)c1ccc(Br)s1 [CHEMBL192592] as the compound, how does the pKi [3] read?
Answer: The pKi was 6.85.

Question: With O=C(O)c1ccc(C(=O)C(=O)c2ccccc2)cc1 [CHEMBL370059] as the compound, how does the pKi [3] read?
Answer: Its pKi is 6.28.

Question: With CCCCCCCCCCCCS(=O)(=O)CC(O)(O)C(F)(F)F [CHEMBL467450] as the compound, how does the pKi [3] read?
Answer: Its pKi is 6.43.

Question: With O=C(C(=O)c1cc(F)cc(F)c1)c1cc(F)cc(F)c1 [CHEMBL193229] as the compound, how does the pKi [3] read?
Answer: The pKi was 7.10.

Question: With CCCCCCCCS(=O)(=O)CC(O)(O)C(F)(F)F [CHEMBL460807] as the compound, how does the pKi [3] read?
Answer: Its pKi is 6.12.

Question: With O=C1C(=O)C(Cl)=C(Cl)C(Cl)=C1Cl [CHEMBL364729] as the compound, how does the pKi [3] read?
Answer: The pKi was 5.26.
